Experimental data as given in patent US20060234997A1, “Tetrahydro-pyridoazepin-8-ones and related compounds for the treatment of schizophrenia” (WARNER-LAMBERT COMPANY LLC, priority 2005, published 2006).

Target: T1, Dopamine D2 receptor (hD2L) (Homo sapiens, UniProt P14416)
T1 construct: expressed in transfected cells; host or cells: CHO cells (CHO-hD2L)
Test: Dopamine D2 Receptor Binding Assay ([3H]spiperone, CHO-hD2L membranes)
Settings: [3H]spiperone 0.4 nM, membrane preparation from CHO-hD2L cells
Source text: The ability of the novel compounds of this invention to bind to the dopamine D2 receptor can be determined using conventional radioligand receptor binding assays. All receptors can be heterologously expressed in cell lines and binding assays can be conducted in membrane preparations from the cell lines using procedures outlined below. IC50 concentrations can be determined by nonlinear regression of concentration-dependent reduction in specific binding. The Cheng-Prussoff equation can be used to convert the IC50 to Ki concentrations.
[^3H]Spiperone binding to a membrane preparation from CHO-hD2L cells was carried out in 250 μl of 50 mM Tris-HCl buffer containing 100 mM NaCl, 1 mM MgCl2 and 1% DMSO at pH 7.4. Duplicate samples containing (in order of addition) the test compounds, 0.4 nM [^3H]spiperone and approximately 12 μg protein were incubated for 120 minutes at room temperature. Bound radioligand was separated by rapid filtration under reduced pressure through Whatman GF/B glass fiber filters previously treated with 0.3% polyethyleneimine. Radioactivity retained on the filter is determined by liquid scintillation spectrophotometry.

T1 sequence (P14416 whole entry): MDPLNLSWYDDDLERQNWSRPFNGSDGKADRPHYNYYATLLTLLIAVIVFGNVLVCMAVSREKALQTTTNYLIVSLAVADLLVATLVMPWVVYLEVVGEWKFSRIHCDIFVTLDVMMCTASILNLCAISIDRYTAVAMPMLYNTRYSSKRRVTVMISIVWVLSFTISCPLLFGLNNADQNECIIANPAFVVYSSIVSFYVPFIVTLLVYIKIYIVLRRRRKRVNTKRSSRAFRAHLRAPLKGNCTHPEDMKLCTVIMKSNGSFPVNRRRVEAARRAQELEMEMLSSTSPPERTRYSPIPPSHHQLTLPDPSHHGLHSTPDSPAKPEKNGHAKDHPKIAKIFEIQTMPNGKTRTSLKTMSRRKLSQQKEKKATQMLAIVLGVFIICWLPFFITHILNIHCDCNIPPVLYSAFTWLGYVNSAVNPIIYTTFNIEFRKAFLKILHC

Structure (SMILES) | Ki [nM]
O=C1NCCc2ccc(OCCCCN3CCN(c4cccc5c4OCCC5)CC3)nc2N1 [Example 17, 2-[4-(4-Chroman-8-yl-piperazin-1-yl)-butoxy]-5,6,7,9-tetrahydro-1,7,9-triaza-benzocyclohepten-8-one] | 1
O=C1CCCc2ccc(OCCCCN3CCN(c4cccc5c4CCCC5)CC3)nc2N1 [Example 5, 2-{4-[4-(5,6,7,8-Tetrahydro-naphthalen-1-yl)-piperazin-1-yl]-butoxy}-5,6,7,9-tetrahydro-pyrido[2,3-b]azepin-8-one] | 2.45
O=C1NCCc2ccc(OCCCCN3CCN(c4cccc5cccc(F)c45)CC3)cc2N1 [Example 42, 8-{4-[4-(8-Fluoro-naphthalen-1-yl)-piperazin-1-yl]-butoxy}-1,3,4,5-tetrahydro-benzo[d][1,3]diazepin-2-one] | 2.32
CN1C(=O)CCc2cccc(N3CCN(CCCCOc4ccc5c(n4)NC(=O)NCC5)CC3)c21 [Example 23, 2-{4-[4-(1-Methyl-2-oxo-1,2,3,4-tetrahydro-quinolin-8-yl)-piperazin-1-yl]-butoxy}-5,6,7,9-tetrahydro-1,7,9-triaza-benzocyclohepten-8-one] | 3
O=C1NCCc2ccc(OCCCCN3CCN(c4cccc5c4COCC5)CC3)cc2N1 [Example 45, 8-[4-(4-Isochroman-8-yl-piperazin-1-yl)-butoxy]-1,3,4,5-tetrahydro-benzo[d][1,3]diazepin-2-one] | 6.14
N#Cc1ccc2cccc(N3CCN(CCCCOc4ccc5c(n4)NC(=O)NCC5)CC3)c2c1 [Example 22, 8-{4-[4-(8-Oxo-6,7,8,9-tetrahydro-5H-1,7,9-triaza-benzocyclohepten-2-yloxy)-butyl]-piperazin-1-yl}-naphthalene-2-carbonitrile] | 0.4
O=C1NCCc2ccc(OCCCCN3CCN(c4cccc(Cl)c4Cl)CC3)nc2N1 [Example 14, 2-{4-[4-(2,3-Dichloro-phenyl)-piperazin-1-yl]-butoxy}-5,6,7,9-tetrahydro-1,7,9-triaza-benzocyclohepten-8-one] | 1
O=C1NCCc2ccc(OCCCN3CCN(c4cccc5ccc(F)cc45)CC3)cc2N1 [Example 44, 8-{3-[4-(7-Fluoro-naphthalen-1-yl)-piperazin-1-yl]-propoxy}-1,3,4,5-tetrahydro-benzo[d][1,3]diazepin-2-one] | 5.44
Cc1cc(N2CCN(CCCCOc3ccc4c(c3)NC(=O)NCC4)CC2)c(Cl)cc1F [Example 31, 8-{4-[4-(2-Chloro-4-fluoro-5-methyl-phenyl)-piperazin-1-yl]-butoxy}-1,3,4,5-tetrahydro-benzo[d][1,3]diazepin-2-one] | 6
CC(C)c1cccc(N2CCN(CCCCOc3ccc4c(c3)NC(=O)NCC4)CC2)n1 [Example 34, 8-{4-[4-(6-Isopropyl-pyridin-2-yl)-piperazin-1-yl]-butoxy}-1,3,4,5-tetrahydro-benzo[d][1,3]diazepin-2-one] | 2.68
O=C1NCCc2ccc(OCCCCN3CCN(c4cccc5c(F)cccc45)CC3)cc2N1 [Example 40, 8-{4-[4-(5-Fluoro-naphthalen-1-yl)-piperazin-1-yl]-butoxy}-1,3,4,5-tetrahydro-benzo[d][1,3]diazepin-2-one] | 11.4
CC1(C)Cc2ccc(OCCCCN3CCN(c4cccc5ccccc45)CC3)cc2NC(=O)N1 [Example 59, 4,4-Dimethyl-8-[4-(4-naphthalen-1-yl-piperazin-1-yl)-butoxy]-1,3,4,5-tetrahydro-benzo[d][1,3]diazepin-2-one] | 3
O=C1CCCc2ccc(OCCCCN3CCN(c4cccc5c4OCCC5)CC3)nc2N1 [Example 4, 2-[4-(4-Chroman-8-yl-piperazin-1-yl)-butoxy]-5,6,7,9-tetrahydro-pyrido[2,3-b]azepin-8-one] | 2
O=C1CCCc2ccc(OCCCCN3CCN(c4cccc5c4OCC5)CC3)nc2N1 [Example 7, 2-{4-[4-(2,3-Dihydro-benzofuran-7-yl)-piperazin-1-yl]-butoxy}-5,6,7,9-tetrahydro-pyrido[2,3-b]azepin-8-one] | 3.46
O=C1CCCc2ccc(OCCCCN3CCN(c4cccc(Cl)c4Cl)CC3)nc2N1 [Example 3, 2-{4-[4-(2,3-dichloro-phenyl)-piperaxin-1-yl]-butoxy}-5,6,7,9-tetrahydro-pyrido[2,3-b]azepin-8-one] | 5.48
O=C1CCCc2ccc(OCCCCN3CCN(c4cccc5ccc(F)cc45)CC3)nc2N1 [Example 8, 2-{4-[4-(7-Fluoro-naphthalen-1-yl)-piperazin-1-yl]-butoxy}-5,6,7,9-tetrahydro-pyrido[2,3-b]azepin-8-one] | 1
O=C1NCCc2ccc(OCCCCN3CCN(c4ccc(F)c(Cl)c4Cl)CC3)cc2N1 [Example 36, 8-{4-[4-(2,3-Dichloro-4-fluoro-phenyl)-piperazin-1-yl]-butoxy}-1,3,4,5-tetrahydro-benzo[d][1,3]diazepin-2-one] | 3

Structure (SMILES) | Ki [nM]
O=C1NCCc2ccc(OCCCN3CCN(c4cccc5ccccc45)CC3)cc2N1 [Example 43, 8-[3-(4-Naphthalen-1-yl-piperazin-1-yl)-propoxy]-1,3,4,5-tetrahydro-benzo[d][1,3]diazepin-2-one] | 3.24
O=C1NCCc2ccc(OCCCCN3CCN(c4cccc5c4CCCC5)CC3)nc2N1 [Example 16, 2-{4-[4-(5,6,7,8-Tetrahydro-naphthalen-1-yl)-piperazin-1-yl]-butoxy}-5,6,7,9-tetrahydro-1,7,9-triaza-benzocyclohepten-8-one] | 1.41
CN1C(=O)CCc2cccc(N3CCN(CCCCOc4ccc5c(n4)NC(=O)CCC5)CC3)c21 [Example 11, 2-{4-[4-(1-Methyl-2-oxo-1,2,3,4-tetrahydro-quinolin-8-yl)-piperazin-1-yl]-butoxy}-5,6,7,9-tetrahydro-pyrido[2,3-b]azepin-8-one] | 18.9
O=C1NCCc2ccc(OCCCCN3CCN(c4cccc5ccccc45)CC3)cc2N1 [Example 32, 8-[4-(4-Naphthalen-1-yl-piperazin-1-yl)-butoxy]-1,3,4,5-tetrahydro-benzo[d][1,3]diazepin-2-one] | 3.45
O=C1NCCc2ccc(OCCCCN3CCN(c4ccc(F)cc4Cl)CC3)cc2N1 [Example 35, 8-{4-[4-(2-Chloro-4-fluoro-phenyl)-piperazin-1-yl]-butoxy}-1,3,4,5-tetrahydro-benzo[d][1,3]diazepin-2-one] | 3
O=C1NCCc2ccc(OCCCCN3CCN(c4cccc5nsnc45)CC3)cc2N1 [Example 39, 8-{4-[4-(2,1,3-benzothiadiazol-4-yl)piperazin-1-yl]butoxy}-1,3,4,5-tetrahydro-2H-1,3-benzodiazepin-2-one] | 2.6
O=C1NCCc2ccc(OCCCCN3CCN(c4cccc5ccccc45)CC3)nc2N1 [Example 15, 2-[4-(4-Naphthalen-1-yl-piperazin-1-yl)-butoxy]-5,6,7,9-tetrahydro-1,7,9-triaza-benzocyclohepten-8-one] | 1
O=C1NCCc2ccc(OCCCCN3CCN(c4cccc5ccc(F)cc45)CC3)cc2N1 [Example 38, 8-{4-[4-(7-Fluoro-naphthalen-1-yl)-piperazin-1-yl]-butoxy}-1,3,4,5-tetrahydro-benzo[d][1,3]diazepin-2-one] | 2.22
N#Cc1ccc2cccc(N3CCN(CCCCOc4ccc5c(n4)NC(=O)CCC5)CC3)c2c1 [Example 10, 8-{4-[4-(8-Oxo-6,7,8,9-tetrahydro-5H-pyrido[2,3-b]azepin-2-yloxy)-butyl]-piperazin-1-yl}-naphthalene-2-carbonitrile] | 2.79
COc1ccc2cccc(N3CCN(CCCCOc4ccc5c(n4)NC(=O)NCC5)CC3)c2c1 [Example 21, 2-{4-[4-(7-Methoxy-naphthalen-1-yl)-piperazin-1-yl]-butoxy}-5,6,7,9-tetrahydro-1,7,9-triaza-benzocyclohepten-8-one] | 0.4
CCc1cccc(N2CCN(CCCCOc3ccc4c(c3)NC(=O)NCC4)CC2)n1 [Example 33] | 2.83
O=C1CCCc2ccc(OCCCCN3CCN(c4cccc5c4OCCCO5)CC3)nc2N1 [Example 9, 2-{4-[4-(3,4-Dihydro-2H-benzo[b][1,4]dioxepin-6-yl)-piperazin-1-yl]-butoxy}-5,6,7,9-tetrahydro-pyrido[2,3-b]azepin-8-one] | 2
O=C1CCCc2ccc(OCCCCN3CCN(c4cccc5c4CCC5)CC3)nc2N1 [Example 6, 2-[4-(4-Indan-4-yl-piperazin-1-yl)-butoxy]-5,6,7,9-tetrahydro-pyrido[2,3-b]azepin-8-one] | 1
Cc1c(F)ccc(N2CCN(CCCCOc3ccc4c(c3)NC(=O)NCC4)CC2)c1Cl [Example 30, 8-{4-[4-(2-Chloro-4-fluoro-3-methyl-phenyl)-piperazin-1-yl]-butoxy}-1,3,4,5-tetrahydro-benzo[d][1,3]diazepin-2-one] | 2
COc1ccc2cccc(N3CCN(CCCOc4ccc5c(c4)NC(=O)NCC5)CC3)c2n1 [Example 41, 8-{3-[4-(2-Methoxy-quinolin-8-yl)-piperazin-1-yl]-propoxy}-1,3,4,5-tetrahydro-benzo[d][1,3]diazepin-2-one] | 1.04
CC1(C)Cc2ccc(OCCCN3CCN(c4cccc5ccccc45)CC3)cc2NC(=O)N1 [Example 60, 4,4-Dimethyl-8-[3-(4-naphthalen-1-yl-piperazin-1-yl)-propoxy]-1,3,4,5-tetrahydro-benzo[d][1,3]diazepin-2-one] | 9.38
O=C1CCCc2ccc(OCCCCN3CCN(c4cccc5ccccc45)CC3)nc2N1 [Example 2, 2-[4-(4-Naphthalen-1-yl-piperazin-1-yl)-butoxy]-5,6,7,9-tetrahydro-pyrido[2,3-b]azepin-8-one] | 3.87
